Assay results reported in ChEMBL document CHEMBL1201862, “PubChem BioAssay data set” (2004).
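Grown in 96-well plates, cells were treated for 48 hours with each compound at five concentrations. Insufficient inhibition: endpoint recorded as highest concentration tested. GI50: concentration for 50% inhibition of growth.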 Active and inactive are the calls of the source. Rule as the data show it: active = GI50 up to about 1.1 µM and inactive = higher.

Assays:
Assay in all cases: DTP human tumour cell line panel, 48 h
T47D = system: T47D
RXF 393 = system: RXF 393
786-0 = system: 786-0
NCI-H460 = system: NCI-H460
SK-OV-3 = system: SK-OV-3
CCRF-CEM = system: CCRF-CEM
HCT-15 = system: HCT-15
MDA-MB-231 = system: MDA-MB-231
U-251 = system: U-251
K562 = system: K562
HT-29 = system: HT-29
SK-MEL-28 = system: SK-MEL-28
HCT-116 = system: HCT-116
UO-31 = system: UO-31
SW-620 = system: SW-620

`O=C(C=P(c1ccccc1)(c1ccccc1)c1ccccc1)c1ccccc1-c1ccccc1C(=O)C=P(c1ccccc1)(c1ccccc1)c1ccccc1` was tested, and the GI50 (T47D) was < 0.01 µM (active), the GI50 (RXF 393) was 0.0208 µM (active) and the GI50 (786-0) was 0.0344 µM (active). For the same compound, the GI50 (NCI-H460) was 0.0248 µM (active), the GI50 (SK-OV-3) was 0.0216 µM (active) and the GI50 (CCRF-CEM) was < 0.0128 µM (active). The GI50 (HCT-15) was 0.28 µM, the GI50 (MDA-MB-231) was 0.0215 µM (active) and the GI50 (U-251) was 0.0173 µM (active). For the same compound, the GI50 (K562) was < 0.01 µM (active), the GI50 (HT-29) was 0.0236 µM (active) and the GI50 (SK-MEL-28) was 0.178 µM (active). For the same compound, the GI50 (HCT-116) was 0.0222 µM (active), the GI50 (UO-31) was 0.228 µM (active) and the GI50 (SW-620) was 0.027 µM (active).
`O=C1c2cccc3cc([N+](=O)[O-])cc(c23)C(=O)N1c1ccc(OCCN2CCCC2)cc1` was tested, and the GI50 (T47D) was > 100 µM (inactive), the GI50 (RXF 393) was 17.9 µM (inactive) and the GI50 (786-0) was 10.6 µM (inactive). For the same compound, the GI50 (NCI-H460) was 3.26 µM (inactive), the GI50 (CCRF-CEM) was 18.6 µM (inactive) and the GI50 (HCT-15) was 14.2 µM. The GI50 (MDA-MB-231) was 43.2 µM (inactive), the GI50 (U-251) was 16.1 µM (inactive) and the GI50 (HT-29) was 11.7 µM (inactive). The GI50 (SK-MEL-28) was 23 µM (inactive), the GI50 (HCT-116) was 6.79 µM (inactive) and the GI50 (UO-31) was 13.6 µM (inactive). For the same compound, the GI50 (SW-620) was 17.2 µM (inactive).
In the case of `COc1ccccc1/C=C\C(=O)C1COCN1` (centres undefined), the GI50 (T47D) is reported as 1.45 µM (inactive), the GI50 (RXF 393) is reported as 21 µM (inactive) and the GI50 (786-0) is reported as 23.9 µM (inactive). The GI50 (NCI-H460) was 30.9 µM (inactive), the GI50 (SK-OV-3) was 10.2 µM (inactive) and the GI50 (CCRF-CEM) was 3.77 µM (inactive). For the same compound, the GI50 (HCT-15) was 14.7 µM, the GI50 (MDA-MB-231) was 17.6 µM (inactive) and the GI50 (U-251) was 11.1 µM (inactive). For the same compound, the GI50 (K562) was 6.98 µM (inactive), the GI50 (HT-29) was 6.35 µM (inactive) and the GI50 (SK-MEL-28) was 18 µM (inactive). The GI50 (HCT-116) was 6.97 µM (inactive), the GI50 (UO-31) was 16.4 µM (inactive) and the GI50 (SW-620) was 4.36 µM (inactive).
For `COc1cc2c(c(OC)c1OC)C(=O)[C@H]1OC(=O)N[C@@H]21`, the GI50 (T47D) was > 100 µM (inactive), the GI50 (RXF 393) was > 100 µM (inactive) and the GI50 (786-0) was > 100 µM (inactive). The GI50 (SK-OV-3) was > 100 µM (inactive), the GI50 (CCRF-CEM) was > 100 µM (inactive) and the GI50 (HCT-15) was over 100 µM. The GI50 (MDA-MB-231) was > 100 µM (inactive), the GI50 (U-251) was > 100 µM (inactive) and the GI50 (K562) was > 100 µM (inactive). For the same compound, the GI50 (HT-29) was > 100 µM (inactive), the GI50 (SK-MEL-28) was > 100 µM (inactive) and the GI50 (HCT-116) was > 100 µM (inactive). The GI50 (UO-31) was > 100 µM (inactive) and the GI50 (SW-620) was > 100 µM (inactive).
For `CC(=O)c1c2c(cc3c1CC1(C3)Cc3cc4c(c(C(=O)O)c3C1)CCCC4)CCCC2.CC(N)c1ccccc1` (centres undefined), the GI50 (T47D) was 36.6 µM (inactive), the GI50 (786-0) was 34.4 µM (inactive) and the GI50 (NCI-H460) was 20.2 µM (inactive). For the same compound, the GI50 (SK-OV-3) was 39.5 µM (inactive), the GI50 (CCRF-CEM) was 31.7 µM (inactive) and the GI50 (HCT-15) was 33.7 µM. The GI50 (MDA-MB-231) was 10 µM (inactive), the GI50 (U-251) was 26.1 µM (inactive) and the GI50 (K562) was 36.4 µM (inactive). The GI50 (HT-29) was 34.1 µM (inactive), the GI50 (SK-MEL-28) was 33.4 µM (inactive) and the GI50 (HCT-116) was 25.1 µM (inactive). The GI50 (UO-31) was 18.6 µM (inactive) and the GI50 (SW-620) was 45.4 µM (inactive).
In the case of `C=C(C)CCC1C=[N+]([O-])OC(C)(C)C1(C)C` (centres undefined), the GI50 (T47D) is reported as > 100 µM (inactive), the GI50 (RXF 393) is reported as > 100 µM (inactive) and the GI50 (786-0) is reported as > 100 µM (inactive). For the same compound, the GI50 (NCI-H460) was > 100 µM (inactive), the GI50 (SK-OV-3) was > 100 µM (inactive) and the GI50 (CCRF-CEM) was 33.3 µM (inactive). The GI50 (HCT-15) was 84.3 µM, the GI50 (MDA-MB-231) was > 100 µM (inactive) and the GI50 (U-251) was > 100 µM (inactive). For the same compound, the GI50 (K562) was > 100 µM (inactive), the GI50 (HT-29) was > 100 µM (inactive) and the GI50 (HCT-116) was > 100 µM (inactive). For the same compound, the GI50 (UO-31) was > 100 µM (inactive) and the GI50 (SW-620) was 39 µM (inactive).
For `C[n+]1c(-c2ccc(/C=N/N=C/c3ccc(-c4cn5ccccc5[n+]4C)cc3)cc2)cn2ccccc21`, the GI50 (T47D) was > 100 µM (inactive), the GI50 (786-0) was > 100 µM (inactive) and the GI50 (NCI-H460) was > 100 µM (inactive). For the same compound, the GI50 (SK-OV-3) was > 100 µM (inactive), the GI50 (CCRF-CEM) was > 100 µM (inactive) and the GI50 (HCT-15) was over 100 µM. The GI50 (MDA-MB-231) was > 100 µM (inactive), the GI50 (U-251) was > 100 µM (inactive) and the GI50 (K562) was > 100 µM (inactive). For the same compound, the GI50 (HT-29) was > 100 µM (inactive), the GI50 (SK-MEL-28) was > 100 µM (inactive) and the GI50 (HCT-116) was > 100 µM (inactive). The GI50 (UO-31) was > 100 µM (inactive) and the GI50 (SW-620) was > 100 µM (inactive).
